Laboratory results reported in US20260209200A1, “SALTS OF A DIHYDROOROTATE DEHYDROGENASE (DHOD) INHIBITOR” (priority 2022, published 2026).
In brackets after ≈: the same amount, converted by molar mass.

Legend:
[1] = Kinetic solubility of PP-001 salts in FaSSIF (HPLC); assay type: physicochemical; conditions: 4 mL FaSSIF, 25° C., target 2 mg/mL
Method: Approximately 8 mg (calculated as freebase) of each salt was weighed out into each glass vial and then 4 ml of FaSSIF was added (target concentration was 2 mg/mL). The sample was kept stirring on a magnetic stirrer at a speed of I 00 RPM under 25° C. Then at the time points of initial, 0.5 hr, 1 hr, 2 hrs and 24 hrs, 0.5 mL of sample solution was transferred into 1.5 mL centrifugation tube and centrifuged at 12,000 RPM for 10 min. The supernatant was diluted by 50% ACN suitable and analyzed by HPLC.
An HPLC method of testing solubility was performed as follows in Table A: […]

[2] = Thermodynamic (equilibrium) solubility of PP-001 salts in FaSSIF; assay type: physicochemical; conditions: for Appearance after stirring for 24 hours: saturated; for Thermodynamic solubility: saturated (target 10 mg/mL), time point 2 hrs, pH 6.4 to 6.5
Method: As the solid was completely dissolved, add more sample to keep it saturated. […] Then at the time point 2 hrs, 0.5 mL of sample solution was transferred into 1.5 mL centrifugation tube and centrifuged at 12,000 RPM for 10 min. The supernatant was diluted by 50% ACN suitable and analyzed by HPLC. The pH was tested after 24 hours.

in vivo [3] = conditions: rat, in vivo, po; for T1/2: pH 6.8
Method: (§1) Suspensions were stirred continuously prior to dose.
A total of 27 male SD rats were used (n=3). 27 male SD rats assigned to the study were divided into 9 groups and a single type of formulated PP-001 salt was orally administered to each group of rats at dose level of 4 mg/kg (2 mL/kg dose volume). The diet was provided ad libitum throughout the in-life portion of the study, except for the fasting prior to dosing through 4 hours post dose. Drinking water was available daily ad libitum to all animals.
Plasma samples were collected via the jugular vein cannulation into EDTA-K3 tubes at 0.25, 0.5, 1, 2, 4, 8, and 24 hours post-dose administration. For analytical batch of single oral administration, plasma concentrations of salts of PP-001 were determined using LC-MS/MS with a lower limit of quantitation of 1 ng/mL.
(§2) The pharmacokinetic parameters of PP-001 salts were determined by non-compartmental analysis using WinNonlin Version 8.0 (Pharsight, Mountain View, CA). The area under the curve from the time of dosing to the last measurable concentration, AUC0-t, was calculated by the linear trapezoidal rule. The area under the concentration-time curve extrapolated to infinity, AUCinf, was calculated using a regression of the natural logarithm of the concentration values versus sampling time of the terminal slope (Lambda Z, k). This value is also used to calculate half-life (T1/2) as follows:
(§3) The bioavailability was calculated as follows:
(§4) [formula] • wherein PO is an oral administration and IV is an intravenous injection.

in vivo [4] = conditions: dog
Method: as §1
A total of 6 male beagle dogs were used (n=3). 6 male dogs assigned to the study were divided into 2 periods with 6 dogs per period and two dosing cycles separated by a 7-day washout period. The diet was provided ad libitum throughout the in-life portion of the study, except for the fasting prior to dosing through 4 hours post dose. Drinking water was available daily ad libitum to all animals. Formulated PP-001 salts were administered to male beagle dogs by oral administration at 4 mg/kg with dosed volume at 2 mL/kg.
Plasma samples were collected via the jugular vein cannulation into EDTA-K3 tubes at 0.25, 0.5, 1, 2, 4, 8, and 24 hours post-dose administration. For analytical batch of single oral administration, plasma concentrations of salts of PP-001 were determined using LC-MS/MS with a lower limit of quantitation of 10 ng/mL.
as §2, §3, §4

[5] = Solubility of PP-001 free acid in supernatant of 10 mg/mL formulation in FaSSIF; assay type: physicochemical; conditions: supernatant of 10 mg/mL formulation at 25° C. in FaSSIF after 120 min

## [K+] [Potassium]
[1]
  Appearance after stirring for 24 hours: clear solution
  Final pH: 6.50
  Solubility at different time points, 0.5 h: 1700 µg/mL
  Solubility at different time points, 1 h: 2180 µg/mL
  Solubility at different time points, 2 h: 2190 µg/mL
  Solubility at different time points, 24 h: 2260 µg/mL
  Solubility at different time points, Initial: 490 µg/mL
[2]; 3 mL FaSSIF, 37° C.
  Appearance after stirring for 24 hours: Suspension
  Thermodynamic solubility: 2340 µg/mL
[2]; FaSSIF, comparison from Table 6
  Increased solubility vs PP-001 free acid: > 100 % increase
In vivo [3]
  Increase in oral BA vs free acid in rats: 0.7
In vivo [3]; 4 mg/kg
  AUC0-∞: 10112 ng·h/mL
  AUCExtr: 0.525%
  AUCinf/D: 2528 kg·ng·h/mL/mg
  AUClast: 10049 ng·h/mL
  Cmax: 1144 ng/mL
  F, bioavailability (BA) in rats: 5.8%
  MRT0-∞: 5.31 h
  Tmax: 4.00 h
  T1/2: 2.96 h
In vivo [4]
  Increase in oral BA vs free acid in dogs: 4.0
In vivo [4]; po
  Increased bioavailability in dogs vs PP-001 free acid: > 400 % increase
In vivo [4]; po, 4 mg/kg
  AUC0-∞: 180263 ng·h/mL
  AUCExtr: 1.59%
  AUCinf/D: 45066 kg·ng·h/mL/mg
  AUClast: 177228 ng·h/mL
  Cmax: 33967 ng/mL
  MRT0-∞: 4.34 h
  T1/2: 4.15 h
  Tmax: 1.17 h

## O=C(Nc1c(F)c(F)c(-c2cccc(OC(F)(F)F)c2)c(F)c1F)c1ccsc1C(=O)O [PP-001 free acid, 3-(2,3,5,6-tetrafluoro-3′-trifluoromethoxy-biphenyl-4-ylcarbamoyl)-thiophene-2-carboxylic acid]
In vivo [3]; male, SD
  Increase in oral BA vs free acid in rats: 1
In vivo [3]; male, SD, 4 mg/kg
  bioavailability: 7.8%
In vivo [4]; male, beagle
  Increase in oral BA vs free acid in dogs: 1
In vivo [4]; male, beagle, po, 4 mg/kg
  bioavailability: 23%
[5]
  solubility at 120 min: 1200 µg/mL (≈ 2500 µM)

## Tromethamine
[1]
  Appearance after stirring for 24 hours: clear solution
  Final pH: 6.51
  Solubility at different time points, 0.5 h: 1990 µg/mL
  Solubility at different time points, 1 h: 1950 µg/mL
  Solubility at different time points, 2 h: 1960 µg/mL
  Solubility at different time points, 24 h: 2020 µg/mL
  Solubility at different time points, Initial: 1720 µg/mL
[2]; 3 mL FaSSIF, 37° C., pH tested after 24 hours
  Final pH: 6.44
[2]; 3 mL FaSSIF, 37° C.
  Appearance after stirring for 24 hours: Suspension
  Thermodynamic solubility: 3700 µg/mL
[2]; 3 mL FaSSIF, 37° C., listed as Tromethamine cation
  Thermodynamic solubility: 3700 µg/mL
In vivo [3]
  Increase in oral BA vs free acid in rats: 1.6
In vivo [3]; 4 mg/kg
  AUC0-∞: 21874 ng·h/mL
  AUCExtr: 0.930%
  AUCinf/D: 5469 kg·ng·h/mL/mg
  AUClast: 21665 ng·h/mL
  Cmax: 2787 ng/mL
  F, bioavailability (BA) in rats: 12.5%
  MRT0-∞: 5.38 h
  Tmax: 4.00 h
  T1/2: 3.39 h
In vivo [4]
  Increase in oral BA vs free acid in dogs: 2.4
In vivo [4]; po, 4 mg/kg
  AUC0-∞: 106528 ng·h/mL
  AUCExtr: 2.03%
  AUCinf/D: 26632 kg·ng·h/mL/mg
  AUClast: 104381 ng·h/mL
  Cmax: 20467 ng/mL
  F, bioavailability (BA) in dogs: 54.4%
  MRT0-∞: 5.38 h
  T1/2: 4.13 h
  Tmax: 2.67 h
